{
  "source": "patent US20060057671A1",
  "about": "(priority 2004, published 2006)",
  "key": {"[1]": {"type": "physicochemical"}, "[2]": {"type": "physicochemical", "remark": "listed apart in the source"}},
  "note": "Where two headings read alike, the source gives them in different places.",
  "data": [
    {"substance": "poly-L-lysine", "values": [
      {"measurement": "CD minimum", "setting": "[1]; pH 7", "result": "approximately 204 nm"},
      {"measurement": "CD minimum", "setting": "[1]; pH 11", "result": "approximately 216 nm"},
      {"measurement": "absorbance plateau", "setting": "[2]; pH 7", "result": "approximately 0.22"},
      {"measurement": "absorbance plateau", "setting": "[2]; pH 11", "result": "approximately 0.12"}
    ]}
  ]
}
